Test results from ChEMBL document CHEMBL5528028, “Discovery of benzopyridone cyanoacetates as new type of potential broad-spectrum antibacterial candidates” (Eur J Med Chem, 2024).
Converted amounts (≈) assume the structure as drawn.

How the values were obtained:
Format in all cases: functional
Escherichia coli [1] = assay: Antibacterial activity against Escherichia coli ATCC 25922 assessed growth inhibition by micro broth dilution method
Staphylococcus aureus [2] = assay: Antibacterial activity against Staphylococcus aureus ATCC 25923 assessed growth inhibition by micro broth dilution method
Enterococcus faecalis = assay: Antibacterial activity against Enterococcus faecalis assessed growth inhibition by micro broth dilution method
Acinetobacter baumannii = assay: Antibacterial activity against Acinetobacter baumannii assessed growth inhibition by micro broth dilution method
Pseudomonas aeruginosa [3] = assay: Antibacterial activity against Pseudomonas aeruginosa assessed growth inhibition by micro broth dilution method
Staphylococcus aureus [4] = assay: Antibacterial activity against Staphylococcus aureus ATCC 29213 assessed growth inhibition by micro broth dilution method
Staphylococcus aureus [5] = assay: Antibacterial activity against Staphylococcus aureus assessed growth inhibition by micro broth dilution method
Staphylococcus aureus [6] = assay: Antibacterial activity against methicillin-resistant Staphylococcus aureus assessed growth inhibition by micro broth dilution method
Klebsiella pneumoniae = assay: Antibacterial activity against Klebsiella pneumonia assessed growth inhibition by micro broth dilution method
Pseudomonas aeruginosa [7] = assay: Antibacterial activity against Pseudomonas aeruginosa ATCC 27853 assessed growth inhibition by micro broth dilution method
Escherichia coli [8] = assay: Antibacterial activity against Escherichia coli assessed growth inhibition by micro broth dilution method

Compound: CCOC(=O)c1cn(C2CC2)c2cc(F)c(F)cc2c1=O
- MIC (Escherichia coli [1]): 64 µg/mL (≈ 218 µM)
- MIC (Staphylococcus aureus [2]): 16 µg/mL (≈ 54.6 µM)
- MIC (Enterococcus faecalis): 128 µg/mL (≈ 436 µM)
- MIC (Acinetobacter baumannii): 256 µg/mL (≈ 873 µM)
- MIC (Pseudomonas aeruginosa [3]): 32 µg/mL (≈ 109 µM)
- MIC (Staphylococcus aureus [4]): 128 µg/mL (≈ 436 µM)
- MIC (Staphylococcus aureus [5]): 64 µg/mL (≈ 218 µM)
- MIC (Staphylococcus aureus [6]): 256 µg/mL (≈ 873 µM)
- MIC (Klebsiella pneumoniae): 64 µg/mL (≈ 218 µM)
- MIC (Pseudomonas aeruginosa [7]): 256 µg/mL (≈ 873 µM)
- MIC (Escherichia coli [8]): 16 µg/mL (≈ 54.6 µM)

Compound: CCCCCCCCn1cc(C(=O)OCC)c(=O)c2cc(F)c(F)cc21
- MIC (Escherichia coli [1]): 64 µg/mL (≈ 175 µM)
- MIC (Staphylococcus aureus [2]): 128 µg/mL (≈ 350 µM)
- MIC (Enterococcus faecalis): 64 µg/mL (≈ 175 µM)
- MIC (Acinetobacter baumannii): 64 µg/mL (≈ 175 µM)
- MIC (Pseudomonas aeruginosa [3]): 64 µg/mL (≈ 175 µM)
- MIC (Staphylococcus aureus [4]): 16 µg/mL (≈ 43.8 µM)
- MIC (Staphylococcus aureus [5]): 4 µg/mL (≈ 10.9 µM)
- MIC (Staphylococcus aureus [6]): 256 µg/mL (≈ 701 µM)
- MIC (Klebsiella pneumoniae): 64 µg/mL (≈ 175 µM)
- MIC (Pseudomonas aeruginosa [7]): 256 µg/mL (≈ 701 µM)
- MIC (Escherichia coli [8]): 4 µg/mL (≈ 10.9 µM)

Compound: CCOC(=O)c1cn(Cc2ccc(F)cc2F)c2cc([C-](C#N)C(=O)OCC)c(F)cc2c1=O.[Na+] (stereo unspecified)
- MIC (Escherichia coli [1]): 2 µg/mL
- MIC (Staphylococcus aureus [2]): 0.5 µg/mL
- MIC (Enterococcus faecalis): 8 µg/mL
- MIC (Acinetobacter baumannii): 32 µg/mL
- MIC (Pseudomonas aeruginosa [3]): 64 µg/mL
- MIC (Staphylococcus aureus [4]): 4 µg/mL
- MIC (Staphylococcus aureus [5]): 128 µg/mL
- MIC (Staphylococcus aureus [6]): 64 µg/mL
- MIC (Klebsiella pneumoniae): 4 µg/mL
- MIC (Pseudomonas aeruginosa [7]): 2 µg/mL
- MIC (Escherichia coli [8]): 1 µg/mL

Compound: CCOC(=O)c1cn(CC2CCCC2)c2cc([C-](C#N)C(=O)OCC)c(F)cc2c1=O.[Na+] (stereo unspecified)
- MIC (Escherichia coli [1]): 2 µg/mL
- MIC (Staphylococcus aureus [2]): 8 µg/mL
- MIC (Enterococcus faecalis): 2 µg/mL
- MIC (Acinetobacter baumannii): 4 µg/mL
- MIC (Pseudomonas aeruginosa [3]): 8 µg/mL
- MIC (Staphylococcus aureus [4]): 4 µg/mL
- MIC (Staphylococcus aureus [5]): 16 µg/mL
- MIC (Staphylococcus aureus [6]): 16 µg/mL
- MIC (Klebsiella pneumoniae): 8 µg/mL
- MIC (Pseudomonas aeruginosa [7]): 8 µg/mL
- MIC (Escherichia coli [8]): 128 µg/mL

Compound: CCOC(=O)c1cn(Cc2ccccc2)c2cc(C(C#N)C(=O)OCC)c(F)cc2c1=O (stereo unspecified)
- MIC (Escherichia coli [1]): 16 µg/mL (≈ 36.7 µM)
- MIC (Staphylococcus aureus [2]): 2 µg/mL (≈ 4.58 µM)
- MIC (Enterococcus faecalis): 16 µg/mL (≈ 36.7 µM)
- MIC (Acinetobacter baumannii): 8 µg/mL (≈ 18.3 µM)
- MIC (Pseudomonas aeruginosa [3]): 0.5 µg/mL (≈ 1.15 µM)
- MIC (Staphylococcus aureus [4]): 2 µg/mL (≈ 4.58 µM)
- MIC (Staphylococcus aureus [5]): 8 µg/mL (≈ 18.3 µM)
- MIC (Staphylococcus aureus [6]): 32 µg/mL (≈ 73.3 µM)
- MIC (Klebsiella pneumoniae): 2 µg/mL (≈ 4.58 µM)
- MIC (Pseudomonas aeruginosa [7]): 2 µg/mL (≈ 4.58 µM)
- MIC (Escherichia coli [8]): 32 µg/mL (≈ 73.3 µM)

Compound: CCCCCCn1cc(C(=O)OCC)c(=O)c2cc(F)c([C-](C#N)C(=O)OCC)cc21.[Na+] (stereo unspecified)
- MIC (Escherichia coli [1]): 1 µg/mL
- MIC (Staphylococcus aureus [2]): 0.5 µg/mL
- MIC (Enterococcus faecalis): 16 µg/mL
- MIC (Acinetobacter baumannii): 0.5 µg/mL
- MIC (Pseudomonas aeruginosa [3]): 0.5 µg/mL
- MIC (Staphylococcus aureus [4]): 1 µg/mL
- MIC (Staphylococcus aureus [5]): 16 µg/mL
- MIC (Staphylococcus aureus [6]): 32 µg/mL
- MIC (Klebsiella pneumoniae): 1 µg/mL
- MIC (Pseudomonas aeruginosa [7]): 1 µg/mL
- MIC (Escherichia coli [8]): 0.5 µg/mL

Compound: CCOC(=O)c1cn(CC(N)=O)c2cc(F)c(F)cc2c1=O
- MIC (Escherichia coli [1]): 32 µg/mL (≈ 103 µM)
- MIC (Staphylococcus aureus [2]): 256 µg/mL (≈ 825 µM)
- MIC (Enterococcus faecalis): 256 µg/mL (≈ 825 µM)
- MIC (Acinetobacter baumannii): 16 µg/mL (≈ 51.6 µM)
- MIC (Pseudomonas aeruginosa [3]): 64 µg/mL (≈ 206 µM)
- MIC (Staphylococcus aureus [4]): 256 µg/mL (≈ 825 µM)
- MIC (Staphylococcus aureus [5]): 128 µg/mL (≈ 413 µM)
- MIC (Staphylococcus aureus [6]): 256 µg/mL (≈ 825 µM)
- MIC (Klebsiella pneumoniae): 256 µg/mL (≈ 825 µM)
- MIC (Pseudomonas aeruginosa [7]): 64 µg/mL (≈ 206 µM)
- MIC (Escherichia coli [8]): 8 µg/mL (≈ 25.8 µM)

Compound: CCOC(=O)c1cn(CC=C(C)C)c2cc([C-](C#N)C(=O)OCC)c(F)cc2c1=O.[Na+] (stereo unspecified)
- MIC (Escherichia coli [1]): 8 µg/mL
- MIC (Staphylococcus aureus [2]): 0.5 µg/mL
- MIC (Enterococcus faecalis): 256 µg/mL
- MIC (Acinetobacter baumannii): 256 µg/mL
- MIC (Pseudomonas aeruginosa [3]): 256 µg/mL
- MIC (Staphylococcus aureus [4]): 8 µg/mL
- MIC (Staphylococcus aureus [5]): 256 µg/mL
- MIC (Staphylococcus aureus [6]): 256 µg/mL
- MIC (Klebsiella pneumoniae): 8 µg/mL
- MIC (Pseudomonas aeruginosa [7]): 8 µg/mL
- MIC (Escherichia coli [8]): 256 µg/mL

Compound: C=CCn1cc(C(=O)OCC)c(=O)c2cc(F)c(F)cc21
- MIC (Escherichia coli [1]): 64 µg/mL (≈ 218 µM)
- MIC (Staphylococcus aureus [2]): 64 µg/mL (≈ 218 µM)
- MIC (Enterococcus faecalis): 128 µg/mL (≈ 436 µM)
- MIC (Acinetobacter baumannii): 256 µg/mL (≈ 873 µM)
- MIC (Pseudomonas aeruginosa [3]): 64 µg/mL (≈ 218 µM)
- MIC (Staphylococcus aureus [4]): 128 µg/mL (≈ 436 µM)
- MIC (Staphylococcus aureus [5]): 128 µg/mL (≈ 436 µM)
- MIC (Staphylococcus aureus [6]): 256 µg/mL (≈ 873 µM)
- MIC (Klebsiella pneumoniae): 32 µg/mL (≈ 109 µM)
- MIC (Pseudomonas aeruginosa [7]): 256 µg/mL (≈ 873 µM)
- MIC (Escherichia coli [8]): 8 µg/mL (≈ 27.3 µM)

Compound: CCOC(=O)c1cn(Cc2ccccc2Cl)c2cc([C-](C#N)C(=O)OCC)c(F)cc2c1=O.[Na+] (stereo unspecified)
- MIC (Escherichia coli [1]): 2 µg/mL
- MIC (Staphylococcus aureus [2]): 0.5 µg/mL
- MIC (Enterococcus faecalis): 1 µg/mL
- MIC (Acinetobacter baumannii): 32 µg/mL
- MIC (Pseudomonas aeruginosa [3]): 16 µg/mL
- MIC (Staphylococcus aureus [4]): 2 µg/mL
- MIC (Staphylococcus aureus [5]): 256 µg/mL
- MIC (Staphylococcus aureus [6]): 64 µg/mL
- MIC (Klebsiella pneumoniae): 4 µg/mL
- MIC (Pseudomonas aeruginosa [7]): 2 µg/mL
- MIC (Escherichia coli [8]): 0.25 µg/mL

Compound: C#CCn1cc(C(=O)OCC)c(=O)c2cc(F)c([C-](C#N)C(=O)OCC)cc21.[Na+] (stereo unspecified)
- MIC (Escherichia coli [1]): 8 µg/mL
- MIC (Staphylococcus aureus [2]): 2 µg/mL
- MIC (Enterococcus faecalis): 32 µg/mL
- MIC (Acinetobacter baumannii): 16 µg/mL
- MIC (Pseudomonas aeruginosa [3]): 32 µg/mL
- MIC (Staphylococcus aureus [4]): 16 µg/mL
- MIC (Staphylococcus aureus [5]): 64 µg/mL
- MIC (Staphylococcus aureus [6]): 64 µg/mL
- MIC (Klebsiella pneumoniae): 16 µg/mL
- MIC (Pseudomonas aeruginosa [7]): 8 µg/mL
- MIC (Escherichia coli [8]): 16 µg/mL
